Series [1] deals with Bacillus subtilis. Nature of the series: Antibacterial activity against Bacillus subtilis assessed as diameter of inhibition zone measured after 24 hrs by agar well diffusion method. The class given is functional. On the technique in general: A growth-free zone around the sample is the usual read-out of agar diffusion tests.
Series [2] deals with Escherichia coli. The series can be described thus: Antibacterial activity against Escherichia coli assessed as diameter of inhibition zone measured after 24 hrs by agar well diffusion method. In kind it is functional.
Series [3] concerns Pseudomonas aeruginosa. The series can be described thus: Antibacterial activity against Pseudomonas aeruginosa assessed as diameter of inhibition zone measured after 24 hrs by agar well diffusion method. In kind it is functional.
A short description of series [4]: Cytotoxicity against rat PC12 cells after 24 hrs by MTT assay. Particulars: for MNTC at 24 h: read-out: MNCC. In kind it is cell-based, PC-12. On the technique in general: Tetrazolium dyes change colour on reduction, which living cells bring about.
A short description of series [5]: Cytotoxicity against rat PC12 cells assessed as cell viability at MNTC after 24 hrs by MTT assay relative to control. The class given is cell-based, PC-12. As to conditions: read-out: Activity.
Series [6] can be described thus: Cytotoxicity against rat PC12 cells assessed as cell viability at CC50 after 24 hrs by MTT assay relative to control. The class given is cell-based, PC-12. As to conditions: read-out: Activity.
The subject of series [7] is PC-12. The series can be described thus: Neuroprotective activity against H2O2-induced cytotoxicity in rat PC12 cells assessed as increase in cell viability pretreated for 24 hrs followed by H2O2 addition by MTT assay. The class given is functional, cell-based.
For series [8], the system named is PC-12. Nature of the series: Neuroprotective activity against H2O2-induced cytotoxicity in rat PC12 cells assessed as cell viability at EC50 pretreated for 24 hrs followed by H2O2 addition by MTT assay relative to control. In kind it is functional.
Series [9] relates to Staphylococcus aureus. Nature of the series: Antibacterial activity against Staphylococcus aureus assessed as diameter of inhibition zone measured after 24 hrs by agar well diffusion method. In kind it is functional.
The subject of series [10] is Staphylococcus aureus. Nature of the series: Antibacterial activity against Staphylococcus aureus after 24 hrs by UV-vis spectrophotometric method. The class given is functional.
The test system of series [11] is Bacillus subtilis. Nature of the series: Antibacterial activity against Bacillus subtilis after 24 hrs by UV-vis spectrophotometric method. In kind it is functional.
Series [12] concerns Escherichia coli. The series can be described thus: Antibacterial activity against Escherichia coli after 24 hrs by UV-vis spectrophotometric method. The class given is functional.
The test system of series [13] is Pseudomonas aeruginosa. Nature of the series: Antibacterial activity against Pseudomonas aeruginosa after 24 hrs by UV-vis spectrophotometric method. The class given is functional.

Values after ≈ are worked out from the molar mass of the structure shown.

As usually defined, the CC50 is the concentration at which the toxic effect on the cells reaches its halfway point. As a reminder, the EC50 is the concentration that produces a half-maximal response. By MIC is commonly meant the least concentration at which growth counts as inhibited. For `COc1cccc(N2CCN(CC#CCOC(=O)c3sc4ncnc(N5CCOCC5)c4c3C)CC2)c1`, the “diameter of the inhibition zone (DIZ)” value in the series with Bacillus subtilis [1] was determined as 16 mm; in the series on Escherichia coli [2] it was 14 mm; in the series on Pseudomonas aeruginosa [3], 14 mm; with Staphylococcus aureus [9] it was 12 mm. This compound came in with a CC50 at 24 h in series [4] of 161 µg/mL (≈ 308 µM). Moreover, the MNTC at 24 h in [4] is 114 µg/mL. Moreover, the viability at 24 h is 98.1% in series [5] and 50% in [6]. In addition, the Activity result in the series on PC-12 [7] was “Dose-dependent effect”; with PC-12 [8] it was 76.78%. Further, the concentration giving a half-maximal response (EC50) with PC-12 [7] was 38.4 µg/mL (≈ 73.6 µM). Also, the MIC against Staphylococcus aureus [10] is 0.0311 µg/mL (≈ 0.0596 µM); against Bacillus subtilis [11], 0.012 µg/mL (≈ 0.023 µM); against Escherichia coli [12], 0.501 µg/mL (≈ 0.96 µM); in the series on Pseudomonas aeruginosa [13], 0.0124 µg/mL (≈ 0.0238 µM).
As to `COc1ccc(-c2nnc(-c3sc4ncnc(N5CCCCC5)c4c3C)o2)cc1`, the “diameter of the inhibition zone (DIZ)” value stood at 14 mm in the series with Bacillus subtilis [1], 17 mm in the series with Escherichia coli [2], 12 mm in the series with Pseudomonas aeruginosa [3] and 10 mm in the series with Staphylococcus aureus [9]. In series [4], this compound registered a cytotoxic concentration (CC50) at 24 h of 124 µg/mL (≈ 305 µM). Further, the MNTC at 24 h in [4] worked out at 100 µg/mL. The viability at 24 h in series [5] amounted to 99%; in series [6], 49.9%. Moreover, the Activity result in the series on PC-12 [7] was “Dose-dependent effect”; with PC-12 [8] it was 75.12%. Besides, the 50% effective concentration (EC50) with PC-12 [7] was found to be 20.1 µg/mL (≈ 49.4 µM). Further, the minimal inhibitory concentration (MIC) against Staphylococcus aureus [10] worked out at 0.0366 µg/mL (≈ 0.0898 µM); against Bacillus subtilis [11], 0.0642 µg/mL (≈ 0.158 µM); in the series on Escherichia coli [12], 0.0486 µg/mL (≈ 0.119 µM); against Pseudomonas aeruginosa [13], 0.0448 µg/mL (≈ 0.11 µM).
Take `Cc1c(-c2nnc(-c3ccc([N+](=O)[O-])cc3)o2)sc2ncnc(N3CCCCC3)c12`: the “diameter of the inhibition zone (DIZ)” value with Bacillus subtilis [1] was found to be 18 mm; with Escherichia coli [2], 14 mm; with Pseudomonas aeruginosa [3], 17 mm; in the series with Staphylococcus aureus [9], 8 mm. Besides, the CC50 at 24 h in series [4] is 145 µg/mL (≈ 343 µM). Further, the MNTC at 24 h in series [4] amounted to 125 µg/mL. The values for the viability at 24 h in [5] and in series [6] were 99% and 49.9%, respectively. For the same compound, the Activity result was “Dose-dependent effect” in the series on PC-12 [7] and 74.78% in the series on PC-12 [8]. In addition, the EC50 in the series with PC-12 [7] was 11.9 µg/mL (≈ 28.1 µM). In addition, the minimal inhibitory concentration (MIC) with Staphylococcus aureus [10] was 0.044 µg/mL (≈ 0.104 µM); with Bacillus subtilis [11], 0.0641 µg/mL (≈ 0.152 µM); with Escherichia coli [12], 0.0361 µg/mL (≈ 0.0854 µM); against Pseudomonas aeruginosa [13], 0.0382 µg/mL (≈ 0.0904 µM).
As to `Cc1c(C(=O)OCC#CCN2CCN(c3ccc(Br)cc3C#N)CC2)sc2ncnc(N3CCCCC3)c12`, the “diameter of the inhibition zone (DIZ)” value amounted to 16 mm with Bacillus subtilis [1], 14 mm in the series on Escherichia coli [2], 15 mm with Pseudomonas aeruginosa [3] and 13 mm in the series with Staphylococcus aureus [9]. This compound gave a CC50 at 24 h in [4] of 136 µg/mL (≈ 230 µM). In addition, the MNTC at 24 h in [4] came out at 96 µg/mL. Besides, the viability at 24 h in series [5] stood at 99.1%; in [6], 51.2%. For the same compound, the figures for the Activity result in the series with PC-12 [7] and in the series with PC-12 [8] were “Dose-dependent effect” and 76.18%, respectively. Further, the EC50 in the series with PC-12 [7] was determined as 40.9 µg/mL (≈ 68.8 µM). The MIC is 0.0124 µg/mL (≈ 0.0209 µM) in the series with Staphylococcus aureus [10], 0.0186 µg/mL (≈ 0.0313 µM) against Bacillus subtilis [11], 0.0244 µg/mL (≈ 0.0411 µM) with Escherichia coli [12] and 0.0112 µg/mL (≈ 0.0189 µM) in the series with Pseudomonas aeruginosa [13].
On to `Cc1c(C(=O)OCC#CCN2CCN(c3cc(C4CC4)ccc3C#N)CC2)sc2ncnc(N3CCOCC3)c12`, for which the “diameter of the inhibition zone (DIZ)” value with Bacillus subtilis [1] is reported as 10 mm; in the series with Escherichia coli [2], 12 mm; in the series on Pseudomonas aeruginosa [3] it was 13 mm; in the series with Staphylococcus aureus [9], 13 mm. For the same compound, in series [4], the CC50 at 24 h was 198 µg/mL (≈ 356 µM). For the same compound, the MNTC at 24 h in [4] turned out to be 150 µg/mL. The viability at 24 h in series [5] came out at 99.1%; in series [6], 49.9%. For the same compound, the Activity entry was “Dose-dependent effect” in the series on PC-12 [7] and 75.15% in the series with PC-12 [8]. Besides, the EC50 with PC-12 [7] turned out to be 12.4 µg/mL (≈ 22.3 µM). Moreover, the minimum inhibitory concentration (MIC) with Staphylococcus aureus [10] came out at 0.312 µg/mL (≈ 0.56 µM); in the series on Bacillus subtilis [11] it was 0.124 µg/mL (≈ 0.223 µM); in the series with Escherichia coli [12], 0.186 µg/mL (≈ 0.334 µM); in the series with Pseudomonas aeruginosa [13] it was 0.0634 µg/mL (≈ 0.114 µM).
Consider GENTAMICIN, for which the minimal inhibitory concentration (MIC) with Staphylococcus aureus [10] was determined as 0.0422 µg/mL; in the series on Bacillus subtilis [11], 0.0386 µg/mL; in the series on Escherichia coli [12], 0.0212 µg/mL; in the series with Pseudomonas aeruginosa [13], 0.0242 µg/mL.

The record behind these values is ChEMBL document CHEMBL4219188, “Design, synthesis, neuroprotective, antibacterial activities and docking studies of novel thieno[2,3-d]pyrimidine-alkyne Mannich base and oxadiazole hybrids” (Bioorg Med Chem Lett, 2018).
